Assay results published in the supplement of paper PMC10307832.

Assays:
Test in all cases: relative viability (nuclei count vs DMSO), 5 days (fraction); higher = more cells survive
[1] = compound: CN1CCN(CC1)C2=CC(=C(C=C2)NC3=NC=C4C(=N3)N(C5=CC=CC=C5C(=O)N4C)C)OC [XMD8-85]
Summary of the method: (§1)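 Lung cancer cell lines were seeded into 1536-well plates, kept overnight at 37 °C and pinned with five library-drug doses (not always all listed) spaced by √10. After 5 days, nuclei were Hoechst-stained, imaged at 4× and counted with MetaXpress. Viability is treated-well nuclei over vehicle-well nuclei, taken as a median across plates. Plates needed control CV below 25% and at least one doubling.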

[2] = compound: O=C(O)C(Cc1ccccc1[N+](=O)[O-])=NNc1nc(-c2ccc(Cl)c(Cl)c2)cs1 (mixture of isomers) [4EGI-1]
Summary of the method: as §1

[3] = compound: CN1CCN(CC1)C2=CC(=C(C=C2)NC3=NC=C4C(=N3)N(C5=CC=CC=C5C(=O)N4C)C)OC [XMD8-85] + Cc1nc(NC(=O)N2CCC[C@H]2C(N)=O)sc1-c1ccnc(C(C)(C)C(F)(F)F)c1 [Alpelisib] (partner 2 µM)
Summary of the method: (§2)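 The day after seeding in 1536-well plates, lung cancer cell lines were treated by pin tool with a single drug, or with a fixed anchor-drug dose together with five library-drug doses (not always all listed) in √10 steps. After 5 days, a combined fix-and-stain solution (final 0.05% Triton X-100, 1% formaldehyde, 1 ug/ml Hoechst) was added. Nuclei counted on 4× images gave relative viability as treated counts over vehicle counts, reported as the median of duplicate plates.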

[4] = compound: O=C(O)C(Cc1ccccc1[N+](=O)[O-])=NNc1nc(-c2ccc(Cl)c(Cl)c2)cs1 (mixture of isomers) [4EGI-1] + CC(C)C[C@H](NC(=O)[C@H](Cc1ccccc1)NC(=O)c1cnccn1)B(O)O [Bortezomib] (partner 0.002 µM)
Summary of the method: as §2

Cell Line | relative viability ([1]; 0.08 µM) | relative viability ([1]; 0.253 µM) | relative viability ([1]; 0.8 µM) | relative viability ([1]; 2.53 µM) | relative viability ([1]; 8 µM) | relative viability ([2]; 0.5 µM) | relative viability ([2]; 1.581 µM) | relative viability ([2]; 5 µM) | relative viability ([2]; 15.81 µM) | relative viability ([2]; 50 µM) | relative viability ([3]; first compound 0.08 µM) | relative viability ([3]; first compound 0.253 µM) | relative viability ([3]; first compound 0.8 µM) | relative viability ([3]; first compound 2.53 µM) | relative viability ([3]; first compound 8 µM) | relative viability ([4]; first compound 0.5 µM) | relative viability ([4]; first compound 1.581 µM) | relative viability ([4]; first compound 5 µM) | relative viability ([4]; first compound 15.81 µM) | relative viability ([4]; first compound 50 µM)
201T | 1 | 0.983 | 0.986 | 0.978 | 0.757 | 1.05 | 0.955 | 1.05 | 0.965 | 0.806 | 0.966 | 1.05 | 1 | 1.08 | 0.901 | 1.15 | 1.05 | 1.08 | 1.09 | 1.03
A549 | 0.954 | 1 | 1.05 | 1.05 | 0.995 | 1.03 | 0.792 | 0.977 | 0.929 | 0.369 | 0.744 | 0.883 | 0.806 | 0.807 | 0.759 |  |  |  |  | 
A-427 | 1.04 | 1 | 1.07 | 1.12 | 0.74 | 1.05 | 0.762 | 1 | 0.86 | 0.254 | 1.09 | 1.13 | 1.1 | 1.11 | 1 | 0.984 | 0.795 | 0.911 | 0.832 | 0.625
ABC-1 | 0.879 | 0.87 | 1.17 | 0.952 | 0.517 | 1.08 | 0.819 | 1.1 | 0.525 | 0.195 | 1.03 | 1.15 | 1.37 | 1.01 |  | 0.344 | 0.291 | 0.319 | 0.285 | 0.214
BEN | 1.03 | 0.956 | 0.901 | 0.7 | 0.523 | 1.15 | 1.07 | 1.06 | 0.98 | 0.728 | 0.871 | 1.06 | 0.966 | 0.662 | 0.553 | 0.848 | 1.22 | 0.903 | 0.754 | 0.604
CAL-12T | 0.936 | 1.06 | 0.871 | 0.908 | 0.654 | 1.03 |  | 0.963 | 0.878 | 0.518 | 1.28 | 1.3 | 1.11 | 0.842 | 0.658 |  |  | 1.1 | 0.951 | 0.403
COR-L23 | 1.11 | 1.07 | 1.06 | 1.12 | 0.886 | 1.08 | 0.859 | 1.11 | 0.771 | 0.155 | 0.882 | 0.887 | 0.742 | 0.712 | 0.506 | 0.983 | 0.651 | 1.09 | 0.808 | 0.19
COR-L 105 | 0.913 | 0.861 | 0.836 | 0.853 | 0.411 | 0.91 | 0.879 | 0.986 | 0.644 | 0.648 |  | 1.22 | 0.926 | 0.635 | 0.358 | 0.876 | 0.592 | 0.725 | 0.424 | 0.252
Calu-6 | 1.02 | 0.962 | 1.08 | 0.96 | 0.834 | 1.03 | 0.887 | 1.1 | 0.951 | 0.618 | 1.02 | 0.985 | 1.05 | 1.08 | 0.865 | 0.982 | 0.877 | 1.15 | 0.989 | 0.33
ChaGo-K-1 | 0.953 | 0.969 | 0.917 | 1.06 | 0.959 | 0.976 | 0.762 | 1.03 | 0.861 | 0.616 |  |  |  |  |  | 0.995 |  | 0.954 | 0.659 | 0.434
EBC-1 | 0.944 | 1.06 | 0.937 | 0.816 | 0.386 | 1.11 | 1.05 | 1.11 | 0.726 | 0.296 | 0.871 | 0.94 |  | 0.694 | 0.336 | 0.668 | 0.547 | 0.704 | 0.52 | 0.181
EKVX | 0.966 | 1.05 | 1.02 | 1.19 | 0.863 | 1.05 | 0.746 | 1.04 | 0.698 | 0.859 | 0.776 | 0.996 | 0.935 | 0.986 | 0.899 | 1.09 | 0.965 | 1.06 | 1.04 | 1.04
EMC-BAC-2 | 1.04 | 1.03 | 0.956 | 1.01 | 0.778 | 1.07 |  | 1.07 | 0.976 | 0.538 | 0.74 | 0.739 | 0.752 | 0.733 | 0.72 | 1.17 | 1.02 | 1.13 | 1.05 | 0.88
EPLC-272H | 0.937 | 1.07 | 0.885 | 0.876 | 0.608 | 1.07 | 0.659 | 1.12 | 0.713 | 0.235 |  | 0.916 | 0.93 | 1.01 | 0.624 | 1.01 | 0.686 | 0.898 | 0.618 | 0.497
H3255 | 1.1 | 0.929 | 0.882 | 0.916 | 0.674 | 1.1 | 0.784 | 1.01 | 0.801 | 0.981 | 0.586 | 0.745 | 0.68 | 0.776 | 0.406 | 0.843 | 0.663 | 0.796 | 0.576 | 0.48
HARA | 0.95 | 0.976 | 0.902 | 1.03 | 0.611 | 1.07 | 1 | 1.07 | 0.765 | 0.257 | 0.932 | 0.675 | 0.911 | 0.445 | 0.27 | 1.16 | 1.12 | 1.26 | 1.08 | 0.154

Cell Line | relative viability ([1]; 0.08 µM) | relative viability ([1]; 0.253 µM) | relative viability ([1]; 0.8 µM) | relative viability ([1]; 2.53 µM) | relative viability ([1]; 8 µM) | relative viability ([2]; 0.5 µM) | relative viability ([2]; 1.581 µM) | relative viability ([2]; 5 µM) | relative viability ([2]; 15.81 µM) | relative viability ([2]; 50 µM) | relative viability ([3]; first compound 0.08 µM) | relative viability ([3]; first compound 0.253 µM) | relative viability ([3]; first compound 0.8 µM) | relative viability ([3]; first compound 2.53 µM) | relative viability ([3]; first compound 8 µM) | relative viability ([4]; first compound 0.5 µM) | relative viability ([4]; first compound 1.581 µM) | relative viability ([4]; first compound 5 µM) | relative viability ([4]; first compound 15.81 µM) | relative viability ([4]; first compound 50 µM)
HCC-15 | 1.01 | 1.02 | 1.08 | 1.06 | 0.849 | 0.982 | 1.02 | 1.02 | 0.947 | 0.583 | 0.934 | 0.851 | 0.997 | 0.894 | 0.661 | 1.09 | 1.12 | 1.06 | 0.951 | 0.801
HCC-44 | 1.02 | 0.948 |  | 1.02 | 0.812 | 0.999 | 0.507 | 0.993 | 0.877 | 0.695 | 0.835 | 0.79 | 0.852 | 0.64 | 0.307 | 0.924 | 0.637 | 0.877 | 0.753 | 0.235
HCC-78 | 1.14 | 1.02 | 0.848 | 0.92 | 0.512 | 1.09 | 0.739 | 0.994 | 0.884 | 0.872 | 0.384 | 0.405 | 0.39 | 0.3 | 0.285 | 0.618 | 0.466 | 0.513 | 0.432 | 0.399
LK-2 | 0.97 | 1.08 | 0.928 | 0.67 | 0.616 | 1.11 |  | 1.29 | 1.08 | 0.854 | 1.16 | 1.04 | 1.12 | 1.26 | 0.694 |  |  |  |  | 
NCI-H358 | 0.881 | 0.914 | 0.977 | 0.984 | 0.691 | 1.01 | 0.767 | 0.998 | 0.629 | 0.16 | 0.957 | 0.856 | 1.11 | 0.854 | 0.584 |  |  |  |  | 
NCI-H522 | 0.94 | 1.11 | 0.947 | 1.09 | 0.677 | 1.01 | 0.878 | 0.99 | 0.922 | 0.69 |  |  |  |  |  |  |  |  |  | 
NCI-H1395 | 0.893 | 0.884 | 0.889 | 1.01 | 0.561 | 1.02 |  | 1.2 | 0.929 | 0.614 | 0.927 | 0.907 | 0.933 | 0.965 | 1.08 |  |  |  |  | 
NCI-H1623 | 0.906 | 0.891 | 0.88 | 0.986 | 0.833 | 1.17 | 0.85 | 1.07 | 0.783 | 0.843 |  |  |  |  |  |  |  |  |  | 
NCI-H1648 | 0.827 | 0.73 | 0.7 | 0.829 | 0.869 | 0.831 | 0.958 | 0.968 | 0.808 | 0.509 |  |  |  |  |  |  |  |  |  | 
NCI-H1650 | 0.974 | 0.874 | 0.946 | 0.889 | 0.297 | 1.12 |  | 1.03 | 0.419 | 0.223 |  |  |  |  |  | 0.197 |  | 0.219 | 0.216 | 0.189
NCI-H1793 | 0.82 | 0.906 | 0.938 | 1.2 | 0.825 | 1.05 | 0.95 | 1.31 | 0.765 | 0.439 | 0.914 | 0.769 | 0.666 | 0.851 | 0.668 |  |  |  |  | 
NCI-H1944 | 0.873 | 0.993 | 1.02 | 1.22 | 0.973 | 1.03 |  | 0.996 | 0.738 | 0.574 | 0.815 | 0.791 | 0.847 | 0.977 | 0.746 |  |  |  |  | 
NCI-H2170 | 1.03 | 1.09 | 1.01 | 1.12 | 0.993 | 0.986 | 0.942 | 0.992 | 0.853 | 0.606 | 0.759 | 0.812 |  | 0.816 | 0.495 |  |  |  |  | 
NCI-H2342 | 0.873 | 1.07 | 1.02 | 1.02 | 1.06 | 1.13 | 0.889 | 0.989 | 1.03 | 0.869 |  |  |  |  |  |  |  |  |  | 
SK-MES-1 | 1.03 | 1.03 | 0.938 | 0.951 | 0.556 | 1.09 | 0.944 | 0.983 | 0.759 | 0.691 | 0.769 | 0.654 | 1.03 | 1.02 |  |  |  |  |  | 
SW 900 | 0.791 | 1.04 | 0.759 | 0.861 | 0.465 | 1.05 | 0.755 | 0.89 | 0.642 | 0.213 |  |  |  |  |  |  |  |  |  | 
